SMILES strings stand for the structures.

For this test, the target named is T1, ER (Homo sapiens, UniProt P03372).
T1 construct: endogenous in cells; probably T47D or MCF-7
T1 sequence (P03372 1-595): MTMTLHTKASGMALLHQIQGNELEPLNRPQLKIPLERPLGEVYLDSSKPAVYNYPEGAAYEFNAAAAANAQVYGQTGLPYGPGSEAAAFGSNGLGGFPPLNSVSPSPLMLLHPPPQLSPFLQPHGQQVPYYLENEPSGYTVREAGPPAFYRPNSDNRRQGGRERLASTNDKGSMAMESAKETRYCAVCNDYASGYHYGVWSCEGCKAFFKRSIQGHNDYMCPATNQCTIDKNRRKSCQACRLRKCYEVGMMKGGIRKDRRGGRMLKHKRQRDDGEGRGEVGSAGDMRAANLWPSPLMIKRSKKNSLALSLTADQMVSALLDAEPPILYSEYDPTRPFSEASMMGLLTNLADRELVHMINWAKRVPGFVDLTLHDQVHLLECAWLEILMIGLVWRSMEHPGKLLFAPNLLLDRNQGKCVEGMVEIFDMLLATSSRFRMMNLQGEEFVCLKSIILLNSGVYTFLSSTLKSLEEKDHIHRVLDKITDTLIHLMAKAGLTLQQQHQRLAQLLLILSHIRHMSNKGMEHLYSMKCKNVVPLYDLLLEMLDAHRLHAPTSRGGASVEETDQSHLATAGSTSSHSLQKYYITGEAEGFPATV
In words: Western blot analysis (compounds B1-B126). Type of test: cell-based. The note with it: ER degradation, read-out: Traditional Western Degradation potency (DC50). As for the experimental part:
Western Blot Analysis. The cells that are treated with the compounds are lysed in Radioimmunoprecipitation Assay Protein Lysis and Extraction Buffer (e.g., 25 mmol/L Tris.HCl, pH 7.6, 150 mmol/L NaCl, 1% Nonidet P-40, 1% sodium deoxycholate, and 0.1% sodium dodecyl sulfate) containing proteinase inhibitor cocktail. Equal amounts of total protein are electrophoresed through 10% SDS-polyacrylamide gels after determination of protein concentration by BCA assay. The separated protein bands are transferred onto PVDF membranes and blotted against different antibodies. The blots are scanned, and the band intensities are quantified (e.g., by using GelQuant.NET software provided by biochemlabsolutions.com). The relative mean intensity of target proteins is expressed after normalization to the intensity of glyceraldehyde-3-phosphate dehydrogenase bands.
Western Blot Analysis. Western blot analysis was performed essentially as described previously. The cells treated with indicated compounds were lysed in Radioimmunoprecipitation Assay Protein Lysis and Extraction Buffer (25 mmol/L Tris.HCl, pH 7.6, 150 mmol/L NaCl, 1% Nonidet P-40, 1% sodium deoxycholate, and 0.1% sodium dodecyl sulfate) containing proteinase inhibitor cocktail (Roche Diagnostics, Mannheim, Germany). Equal amounts of total protein were electrophoresed through 10% SDS-polyacrylamide gels after determination of protein concentration by BCA assay (Fisher Scientific, Pittsburgh, PA). The separated protein bands were transferred onto PVDF membranes (GE Healthcare Life Sciences, Marlborough, MA) and blotted against different antibodies, as indicated. The blots were scanned, and the band intensities were quantified using GelQuant.NET software provided by biochemlabsolutions.com. The relative mean intensity of target proteins was expressed after normalization to the intensity of glyceraldehyde-3-phosphate dehydrogenase bands.
A general note: In western blotting, separated proteins are transferred to a membrane and probed.
On to `C[C@@H]1Cc2c(ccc3[nH]ncc23)[C@@H](c2c(F)cc(N3CCC(C(=O)N4CCC(N5Cc6cc7c(cc6C5)C(=O)N(C5CCC(=O)NC5=O)C7=O)CC4)CC3)cc2F)N1CC(F)F` (stereo partly drawn) [Compound B6, 6-(1-(1-(4-((6S,8R)-7-(2,2-difluoroethyl)-8-methyl-6,7,8,9-tetrahydro-3H-pyrazolo[4,3-f]isoquinolin-6-yl)-3,5-difluorophenyl)piperidine-4-carbonyl)piperidin-4-yl)-2-(2,6-dioxopiperidin-3-yl)-6,7-dihydropyrrolo[3,4-f]isoindole-1,3(2H,5H)-dione], for which the DC50 is less than 0.01 µM.
In the case of `C[C@@H]1Cc2c(ccc3[nH]ncc23)[C@@H](c2c(F)cc(C3CCN(C(=O)[C@H]4CC[C@H](N5Cc6cc7c(cc6C5)C(=O)N(C5CCC(=O)NC5=O)C7=O)CC4)CC3)cc2F)N1CC(F)F` (stereo partly drawn) [Compound B7, 6-((1S,4r)-4-(4-(4-((6S,8R)-7-(2,2-difluoroethyl)-8-methyl-6,7,8,9-tetrahydro-3H-pyrazolo[4,3-f]isoquinolin-6-yl)-3,5-difluorophenyl)piperidine-1-carbonyl)cyclohexyl)-2-(2,6-dioxopiperidin-3-yl)-6,7-dihydropyrrolo[3,4-f]isoindole-1,3(2H,5H)-dione] it was greater than 0.1 µM.
On to `C[C@@H]1Cc2c(ccc3[nH]ncc23)[C@@H](c2c(F)cc(C3CCN(C(=O)[C@H]4CC[C@@H](N5Cc6cc7c(cc6C5)C(=O)N(C5CCC(=O)NC5=O)C7=O)CC4)CC3)cc2F)N1CC(F)F` (stereo partly drawn) [Compound B8, 6-((1R,4s)-4-(4-(4-((6S,8R)-7-(2,2-difluoroethyl)-8-methyl-6,7,8,9-tetrahydro-3H-pyrazolo[4,3-f]isoquinolin-6-yl)-3,5-difluorophenyl)piperidine-1-carbonyl)cyclohexyl)-2-(2,6-dioxopiperidin-3-yl)-6,7-dihydropyrrolo[3,4-f]isoindole-1,3(2H,5H)-dione], for which the DC50 was greater than 0.1 µM.
Next, `C[C@@H]1Cc2c(ccc3[nH]ncc23)[C@@H](c2ccc(C3CCC(C(=O)N4CCC(N5Cc6cc7c(cc6C5)C(=O)N(C5CCC(=O)NC5=O)C7=O)CC4)CC3)cn2)N1CC(F)(F)F` (stereo partly drawn) [Compound B10, 2-(2,6-dioxopiperidin-3-yl)-6-(1-(4-(6-((6S,8R)-8-methyl-7-(2,2,2-trifluoroethyl)-6,7,8,9-tetrahydro-3H-pyrazolo[4,3-f]isoquinolin-6-yl)pyridin-3-yl)cyclohexane-1-carbonyl)piperidin-4-yl)-6,7-dihydropyrrolo[3,4-f]isoindole-1,3(2H,5H)-dione]: 0.01 to 0.1 µM; `C[C@@H]1Cc2c(ccc3[nH]ncc23)[C@@H](c2ccc(C3=CCC(C(=O)N4CCC(N5Cc6cc7c(cc6C5)C(=O)N(C5CCC(=O)NC5=O)C7=O)CC4)CC3)cn2)N1CC(F)(F)F` (stereo partly drawn) [Compound B11, 2-(2,6-dioxopiperidin-3-yl)-6-(1-(4-(6-((6S,8R)-8-methyl-7-(2,2,2-trifluoroethyl)-6,7,8,9-tetrahydro-3H-pyrazolo[4,3-f]isoquinolin-6-yl)pyridin-3-yl)cyclohex-3-ene-1-carbonyl)piperidin-4-yl)-6,7-dihydropyrrolo[3,4-f]isoindole-1,3(2H,5H)-dione]: less than 0.01 µM; `C[C@@H]1Cc2c(ccc3[nH]ncc23)[C@@H](c2c(F)cc(N3CCC4(CCN(C(=O)CN5Cc6cc7c(cc6C5)C(=O)N(C5CCC(=O)NC5=O)C7=O)CC4)C3)cc2F)N1CC(F)F` (stereo partly drawn) [Compound B12, 6-(2-(2-(4-((6S,8R)-7-(2,2-difluoroethyl)-8-methyl-6,7,8,9-tetrahydro-3H-pyrazolo[4,3-f]isoquinolin-6-yl)-3,5-difluorophenyl)-2,8-diazaspiro[4.5]decan-8-yl)-2-oxoethyl)-2-(2,6-dioxopiperidin-3-yl)-6,7-dihydropyrrolo[3,4-f]isoindole-1,3(2H,5H)-dione]: 0.01 to 0.1 µM.
As to `C[C@@H]1Cc2c(ccc3[nH]ncc23)[C@@H](c2c(F)cc(N3CC4(CCN(C(=O)CN5Cc6cc7c(cc6C5)C(=O)N(C5CCC(=O)NC5=O)C7=O)CC4)C3)cc2F)N1CC(F)F` (stereo partly drawn) [Compound B13, 6-(2-(2-(4-((6S,8R)-7-(2,2-difluoroethyl)-8-methyl-6,7,8,9-tetrahydro-3H-pyrazolo[4,3-f]isoquinolin-6-yl)-3,5-difluorophenyl)-2,7-diazaspiro[3.5]nonan-7-yl)-2-oxoethyl)-2-(2,6-dioxopiperidin-3-yl)-6,7-dihydropyrrolo[3,4-f]isoindole-1,3(2H,5H)-dione], the 50% degradation concentration (DC50) is less than 0.01 µM.
Next, `C[C@@H]1Cc2c(ccc3[nH]ncc23)[C@@H](c2c(F)cc(N3CCC(CN4CC5(Cc6cc7c(cc6C5)C(=O)N(C5CCC(=O)NC5=O)C7=O)C4)CC3)cc2F)N1CC(F)F` (stereo partly drawn) [Compound B14, 1-((1-(4-((6S,8R)-7-(2,2-difluoroethyl)-8-methyl-6,7,8,9-tetrahydro-3H-pyrazolo[4,3-f]isoquinolin-6-yl)-3,5-difluorophenyl)piperidin-4-yl)methyl)-2′-(2,6-dioxopiperidin-3-yl)-5′,7′-dihydro-1′H-spiro[azetidine-3,6′-cyclopenta[f]isoindole]-1′,3′(2′H)-dione]: greater than 0.1 µM.
In the case of `COc1c2c(cc3c1C(=O)N(C1CCC(=O)NC1=O)C3=O)CN(CC(=O)N1CCC3(CC1)CCN(c1cc(F)c([C@@H]4c5ccc6[nH]ncc6c5C[C@@H](C)N4CC(F)F)c(F)c1)CC3)C2` (stereo partly drawn) [Compound B17, 6-(2-(9-(4-((6S,8R)-7-(2,2-difluoroethyl)-8-methyl-6,7,8,9-tetrahydro-3H-pyrazolo[4,3-f]isoquinolin-6-yl)-3,5-diazaspiro[5.5]undecan-3-yl)-2-difluorophenyl)-3,9-oxoethyl)-2-(2,6-dioxopiperidin-3-yl)-4-methoxy-6,7-dihydropyrrolo[3,4-f]isoindole-1,3(2H,5H)-dione] it was less than 0.01 µM; in that of `C[C@@H]1Cc2c(ccc3[nH]ncc23)[C@@H](c2c(F)cc(N3CCC(CN4CCN5c6cc7c(cc6N(C)C[C@@H]5C4)C(=O)N(C4CCC(=O)NC4=O)C7)CC3)cc2F)N1CC(F)F` (stereo partly drawn) [Compound B18, 3-((S)-3-((1-(4-((6S,8R)-7-(2,2-difluoroethyl)-8-methyl-6,7,8,9-tetrahydro-3H-pyrazolo[4,3-f]isoquinolin-6-yl)-3,5-difluorophenyl)piperidin-4-yl)methyl)-6-methyl-8-oxo-2,3,4,4a,5,6,8,10-octahydropyrazino[1,2-a]pyrrolo[3,4-g]quinoxalin-9(1H)-yl)piperidine-2,6-dione], 0.01 to 0.1 µM; in that of `C[C@@H]1Cc2c(ccc3[nH]ncc23)[C@@H](c2c(F)cc(N3CCC(CN4CCC(N5Cc6cc7c(cc6C5=O)CN(C5CCC(=O)NC5=O)C7=O)CC4)CC3)cc2F)N1CC(F)F` (stereo partly drawn) [Compound B19, 2-(1-((1-(4-((6S,8R)-7-(2,2-difluoroethyl)-8-methyl-6,7,8,9-tetrahydro-3H-pyrazolo[4,3-f]isoquinolin-6-yl)-3,5-difluorophenyl)piperidin-4-yl)methyl)piperidin-4-yl)-6-(2,6-dioxopiperidin-3-yl)-2,3,6,7-tetrahydropyrrolo[3,4-f]isoindole-1,5-dione], less than 0.01 µM.
Next, `C[C@@H]1Cc2c(ccc3[nH]ncc23)[C@@H](c2c(F)cc(N3CCC(CN4CCN(c5ccc6c(c5)C(=O)N(C5CCC(=O)NC5=O)C6=O)CC4)CC3)cc2F)N1CC(F)F` (stereo partly drawn) [Compound B65, 5-(4-((1-(4-((6S,8R)-7-(2,2-difluoroethyl)-8-methyl-6,7,8,9-tetrahydro-3H-pyrazolo[4,3-f]isoquinolin-6-yl)-3,5-difluorophenyl)piperidin-4-yl)methyl)piperazin-1-yl)-2-(2,6-dioxopiperidin-3-yl)isoindoline-1,3-dione]: 0.01 to 0.1 µM; `C[C@@H]1Cc2c(ccc3[nH]ncc23)[C@@H](c2c(F)cc(N3CCC(CN4CCN(c5cc6c(cc5F)C(=O)N(C5CCC(=O)NC5=O)C6=O)CC4)CC3)cc2F)N1CC(F)F` (stereo partly drawn) [Compound B66, 5-(4-((1-(4-((6S,8R)-7-(2,2-difluoroethyl)-8-methyl-6,7,8,9-tetrahydro-3H-pyrazolo[4,3-f]isoquinolin-6-yl)-3,5-difluorophenyl)piperidin-4-yl)mcthyl)pipcrazin-1-yl)-2-(2,6-dioxopiperidin-3-yl)-6-fluoroisoindoline-1,3-dione]: 0.01 to 0.1 µM.

In general, DC50 refers to the midpoint of the concentration-degradation curve.

The values above are taken from patent US20260256925A1, “INDAZOLE DERIVATIVES AS ESTROGEN RECEPTOR DEGRADERS” (REGENTS OF THE UNIVERSITY OF MICHIGAN, priority 2022, published 2026).
